Assay results from patent publication US8324245B2, “Quinoline derivative and quinazoline derivative inhibiting self-phosphorylation of hepatocytus proliferator receptor, and medicinal composition containing the same” (Kyowa Hakko Kirin Co., Ltd., priority 2001, dated 2012).

Target: T1, met (HGF receptor) in human gastric cancer cells MKN45 (Homo sapiens, UniProt P08581)
T1 construct: endogenous in cells; host or cells: MKN45 human gastric cancer cells
Assay: Inhibitory activity against met-autophosphorylation using ELISA method (2), MKN45 cells, HGF-independent
Type: cell-based
In short: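 MKN45 cells, 3×10^4 per well in RPMI with 0.1% FCS overnight, were exposed to compound in DMSO for 1 h at 37 °C without HGF. Lysates were captured on anti-phosphotyrosine (PY20) plates, Met detected with anti-Met and peroxidase secondary antibody, absorbance at 450 nm.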

T1 sequence (P08581 25-1390): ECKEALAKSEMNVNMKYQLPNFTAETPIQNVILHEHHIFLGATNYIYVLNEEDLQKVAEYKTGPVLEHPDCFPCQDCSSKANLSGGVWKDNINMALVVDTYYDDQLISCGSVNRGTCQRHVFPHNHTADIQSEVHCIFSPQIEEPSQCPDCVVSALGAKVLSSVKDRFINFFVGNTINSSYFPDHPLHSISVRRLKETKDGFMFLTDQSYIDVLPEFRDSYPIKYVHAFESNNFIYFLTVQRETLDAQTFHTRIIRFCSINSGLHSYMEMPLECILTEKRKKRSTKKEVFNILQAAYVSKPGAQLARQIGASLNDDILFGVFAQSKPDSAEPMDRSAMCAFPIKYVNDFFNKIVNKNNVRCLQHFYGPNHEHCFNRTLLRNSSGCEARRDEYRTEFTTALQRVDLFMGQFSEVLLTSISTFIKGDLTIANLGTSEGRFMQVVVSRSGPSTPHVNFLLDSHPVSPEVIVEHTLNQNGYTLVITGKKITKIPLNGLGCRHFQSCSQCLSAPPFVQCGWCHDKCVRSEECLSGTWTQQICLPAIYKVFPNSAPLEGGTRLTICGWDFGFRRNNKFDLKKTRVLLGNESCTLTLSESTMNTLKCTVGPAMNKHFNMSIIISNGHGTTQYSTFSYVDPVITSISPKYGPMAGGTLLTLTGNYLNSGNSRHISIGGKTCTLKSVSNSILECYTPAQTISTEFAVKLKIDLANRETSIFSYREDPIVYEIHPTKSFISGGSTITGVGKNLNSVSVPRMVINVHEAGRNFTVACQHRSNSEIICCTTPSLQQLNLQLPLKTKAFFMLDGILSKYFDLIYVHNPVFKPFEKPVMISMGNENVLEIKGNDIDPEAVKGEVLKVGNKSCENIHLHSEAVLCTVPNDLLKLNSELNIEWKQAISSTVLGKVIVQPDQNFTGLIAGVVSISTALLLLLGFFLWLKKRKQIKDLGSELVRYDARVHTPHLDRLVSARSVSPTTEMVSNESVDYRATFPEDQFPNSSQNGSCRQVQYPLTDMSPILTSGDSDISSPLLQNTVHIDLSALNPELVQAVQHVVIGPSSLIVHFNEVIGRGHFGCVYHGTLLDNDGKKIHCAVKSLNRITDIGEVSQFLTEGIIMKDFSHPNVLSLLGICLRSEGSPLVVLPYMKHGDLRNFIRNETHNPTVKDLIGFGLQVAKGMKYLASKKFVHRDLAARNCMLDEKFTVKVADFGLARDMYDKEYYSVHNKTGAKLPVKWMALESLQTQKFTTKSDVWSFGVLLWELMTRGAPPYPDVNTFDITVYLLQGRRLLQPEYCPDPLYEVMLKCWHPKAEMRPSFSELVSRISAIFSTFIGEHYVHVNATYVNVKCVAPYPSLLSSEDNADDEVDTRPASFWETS

| IC50 | Compound |
| --- | --- |
| 0.345 µM | COc1cc2nccc(Oc3ccc(NC(=O)NC(=O)c4ccccc4Cl)c(F)c3)c2cc1OC [Example 107, 1-(2-chloro-benzoyl)-3-[4-(6,7-dimethoxy-quinolin-4-yloxy)-2-fluorophenyl]urea] |
| 2.08 µM | COc1cc2nccc(Oc3ccc(NC(=O)NC(=O)c4ccccc4C)c(F)c3)c2cc1OC [Example 108, 1-[4-(6,7-dimethoxyquinolin-4-yloxy)-2-fluorophenyl]-3-(2-methyl-benzoyl)urea] |
| 1.48 µM | CCCCC(=O)NC(=O)Nc1ccc(Oc2ccnc3cc(OC)c(OC)cc23)c(Cl)c1 [Example 109, 1-[3-chloro-4-(6,7-dimethoxyquinolin-4-yloxy)phenyl]-3-pentanoylurea] |
| 2.38 µM | CCN(CC)CC(=O)NC(=O)Nc1ccc(Oc2ccnc3cc(OC)c(OC)cc23)c(Cl)c1 [Example 110, 1-[3-chloro-4-(6,7-dimethoxyquinolin-4-yloxy)phenyl]-3-(2-diethylaminoacetyl)urea] |
| 1.81 µM | COc1cc2nccc(Oc3ccc(NC(=O)NC(=O)CN4CCCC4)cc3Cl)c2cc1OC [Example 111, 1-[3-chloro-4-(6,7-dimethoxyquinolin-4-yloxy)phenyl]-3-(2-pyrrolidin-1-ylacetyl)urea] |
| 1.73 µM | COc1cc2nccc(Oc3ccc(NC(=O)NC(=O)CN(C)C(C)C)cc3Cl)c2cc1OC [Example 112, 1-[3-chloro-4-(6,7-dimethoxyquinolin-4-yloxy)phenyl]-3-[2-(isopropylmethylamino)acetyl]urea] |
| 0.653 µM | COc1cc2nccc(Oc3ccc(NC(=O)NC(=O)CSC4CCCCC4)cc3)c2cc1OC [Example 113, 1-(2-cyclohexylsulfanylacetyl)-3-[4-(6,7-dimethoxyquinolin-4-yloxy)phenyl]urea] |
| 0.485 µM | COc1cc2nccc(Oc3ccc(NC(=O)NC(=O)CSC4CCCCC4)c(F)c3)c2cc1OC [Example 114, 1-(2-cyclohexylsulfanylacetyl)-3-[4-(6,7-dimethoxyquinolin-4-yloxy)-2-fluorophenyl]urea] |
| 0.359 µM | COc1cc2nccc(Oc3ccc(NC(=O)NC(=O)CSC4CCCCC4)cc3F)c2cc1OC [Example 115, 1-(2-cyclohexylsulfanylacetyl)-3-[4-(6,7-dimethoxyquinolin-4-yloxy)-3-fluorophenyl]urea] |
| 0.344 µM | COc1cc2nccc(Oc3ccc(NC(=O)NC(=O)CSC4CCCC4)cc3Cl)c2cc1OC [Example 116, 1-[3-chloro-4-(6,7-dimethoxyquinolin-4-yloxy)phenyl]-3-(2-cyclopentylsulfanylacetyl)urea] |
| 0.442 µM | COc1cc2nccc(Oc3ccc(NC(=O)NC(=O)CN4CCCc5cc(C)ccc54)c(F)c3)c2cc1OC [Example 119, 1-[4-(6,7-dimethoxyquinolin-4-yloxy)-2-fluorophenyl]-3-[2-(6-methyl-3,4-dihydro-2H-quinolin-1-yl)acetyl]urea] |
| 1.57 µM | COc1cc2nccc(Oc3ccc(NC(=O)NC(=O)CN4CCC(Cc5ccccc5)CC4)cc3F)c2cc1OC [Example 120, 1-[2-(4-benzyl-piperidin-1-yl)acetyl]-3-[4-(6,7-dimethoxyquinolin-4-yloxy)-3-fluorophenyl]urea] |
| 0.338 µM | COc1cc2nccc(Oc3ccc(NC(=O)NC(=O)CN4CCc5ccccc54)c(F)c3)c2cc1OC [Example 121, 1-[2-(2,3-dihydro-1H-1-indol-1-yl)acetyl]-3-[4-(6,7-dimethoxyquinolin-4-yloxy)-2-fluorophenyl]urea] |
| 0.303 µM | COc1cc2nccc(Oc3ccc(NC(=O)NC(=O)CN4CCc5ccccc54)cc3F)c2cc1OC [Example 122, 1-[2-(2,3-dihydro-1H-1-indol-1-yl)acetyl]-3-[4-(6,7-dimethoxyquinolin-4-yloxy)-3-fluorophenyl]urea] |
| 2.01 µM | COc1cc2nccc(Oc3ccc(NC(=O)NC(=O)Cn4ccnn4)cc3Cl)c2cc1OC [Example 123, 1-[3-chloro-4-(6,7-dimethoxyquinolin-4-yloxy)phenyl]-3-(2-[1,2,3]triazol-1-ylacetyl)urea] |
| 0.264 µM | COc1cc2nccc(Oc3ccc(NC(=O)NC(=O)Cc4ccc(C)cc4)c(F)c3)c2cc1OC [Example 124, 1-[4-(6,7-dimethoxyquinolin-4-yloxy)-2-fluorophenyl]-3-(2-p-tolylacetyl)urea] |
| 0.33 µM | COc1cc2nccc(Oc3ccc(NC(=O)NC(=O)CC4C5CCC4CC5)c(F)c3)c2cc1OC (centres unmarked) [Example 126, 1-(2-bicyclo[2.2.1]hepto-7-ylacetyl)-3-[4-(6,7-dimethoxyquinolin-4-yloxy)-2-fluorophenyl]urea] |
| 0.319 µM | COc1cc2nccc(Oc3ccc(NC(=O)NC(=O)CC4C5CCC4CC5)cc3F)c2cc1OC (centres unmarked) [Example 127, 1-(2-bicyclo[2.2.1]hepto-7-ylacetyl)-3-[4-(6,7-dimethoxyquinolin-4-yloxy)-3-fluorophenyl]urea] |
| 0.285 µM | COc1cc2nccc(Oc3ccc(NC(=O)NC(=O)CC4C5CCC4CC5)cc3Cl)c2cc1OC (centres unmarked) [Example 128, 1-(2-bicyclo[2.2.1]hepto-7-ylacetyl)-3-[3-chloro-4-(6,7-dimethoxyquinolin-4-yloxy)phenyl]urea] |

| IC50 | Compound |
| --- | --- |
| 1.01 µM | COc1cc2nccc(Oc3ccc(NC(=O)NC(=O)CSc4ccccc4)cc3)c2cc1OC [Example 129, 1-[4-(6,7-dimethoxyquinolin-4-yloxy)phenyl]-3-(2-phenylsulfanylacetyl)urea] |
| 2.16 µM | COc1cc2nccc(Oc3ccc(NC(=O)NC(=O)CSc4nccn4C)cc3Cl)c2cc1OC [Example 130, 1-[3-chloro-4-(6,7-dimethoxyquinolin-4-yloxy)phenyl]-3-[2-(1-methyl-1H-imidazol-2-ylsulfanyl)-acetyl]urea] |
| 2.37 µM | COc1cc2nccc(Oc3ccc(NC(=O)NC(=O)CN4CCSCC4)cc3Cl)c2cc1OC [Example 131, 1-[3-chloro-4-(6,7-dimethoxyquinolin-4-yloxy)phenyl]-3-(2-thiomorpholin-4-ylacetyl)urea] |
| 0.268 µM | COc1cc2nccc(Oc3ccc(NC(=O)NC(=O)Cc4cc(F)ccc4F)c(F)c3)c2cc1OC [Example 132] |
| 0.261 µM | COc1cc2nccc(Oc3ccc(NC(=O)NC(=O)Cc4cc(F)ccc4F)cc3F)c2cc1OC [Example 133, 1-[2-(2,5-difluorophenyl)acetyl]-3-[4-(6,7-dimethoxyquinolin-4-yloxy)-3-fluorophenyl]urea] |
| 0.232 µM | COc1cc2nccc(Oc3ccc(NC(=O)NC(=O)Cc4c(F)cccc4F)c(F)c3)c2cc1OC [Example 134, 1-[2-(2,6-difluorophenyl)acetyl]-3-[4-(6,7-dimethoxyquinolin-4-yloxy)-2-fluorophenyl]urea] |
| 0.226 µM | COc1cc2nccc(Oc3ccc(NC(=O)NC(=O)Cc4c(F)cccc4F)cc3F)c2cc1OC [Example 135, 1-[2-(2,6-difluorophenyl)acetyl]-3-[4-(6,7-dimethoxyquinolin-4-yloxy)-3-fluorophenyl]urea] |
| 0.342 µM | COc1cc2nccc(Oc3ccc(NC(=O)NC(=O)Cc4ccccc4C(F)(F)F)c(F)c3)c2cc1OC [Example 136, 1-[4-(6,7-dimethoxyquinolin-4-yloxy)-2-fluorophenyl]-3-[2-(2-trifluoromethylphenyl)acetyl]urea] |
| 0.271 µM | COc1cc2nccc(Oc3ccc(NC(=O)NC(=O)Cc4ccccc4C(F)(F)F)cc3F)c2cc1OC [Example 137, 1-[4-(6,7-dimethoxyquinolin-4-yloxy)-3-fluorophenyl]-3-[2-(2-trifluoromethylphenyl)acetyl]urea] |
| 0.284 µM | COc1cc2nccc(Oc3ccc(NC(=O)NC(=O)Cc4cccc(F)c4F)c(F)c3)c2cc1OC [Example 138, 1-[2-(2,3-difluorophenyl)acetyl]-3-[4-(6,7-dimethoxyquinolin-4-yloxy)-2-fluorophenyl]urea] |
| 0.243 µM | COc1cc2nccc(Oc3ccc(NC(=O)NC(=O)Cc4cccc(F)c4F)cc3F)c2cc1OC [Example 139, 1-[2-(2,3-difluorophenyl)acetyl]-3-[4-(6,7-dimethoxyquinolin-4-yloxy)-3-fluorophenyl]urea] |
| 0.229 µM | COc1cc2nccc(Oc3ccc(NC(=O)NC(=O)Cc4ccc(F)c(F)c4)c(F)c3)c2cc1OC [Example 140, 1-[2-(3,4-difluorophenyl)acetyl]-3-[4-(6,7-dimethoxyquinolin-4-yloxy)-2-fluorophenyl]urea] |
| 0.336 µM | COc1cc2nccc(Oc3ccc(NC(=O)NC(=O)Cc4cc(F)cc(F)c4)c(F)c3)c2cc1OC [Example 141, 1-[2-(3,5-difluorophenyl)acetyl]-3-[4-(6,7-dimethoxyquinolin-4-yloxy)-2-fluorophenyl]urea] |
| 0.285 µM | COc1cc2nccc(Oc3ccc(NC(=O)NC(=O)Cc4cc(F)cc(F)c4)cc3F)c2cc1OC [Example 142, 1-[2-(3,5-difluorophenyl)acetyl]-3-[4-(6,7-dimethoxyquinolin-4-yloxy)-3-fluorophenyl]urea] |
| 3.59 µM | COc1cc2nccc(Oc3ccc(NC(=S)NC(=O)C4CCCC4)c(F)c3)c2cc1OC [Example 143, 1-cyclopentanecarbonyl-3-[4-(6,7-dimethoxy-quinolin-4-yloxy)-2-fluorophenyl]thiourea] |
| 0.699 µM | COc1cccc(C(=O)NC(=S)Nc2ccc(Oc3ccnc4cc(OC)c(OC)cc34)c(F)c2)c1 [Example 144, 1-[4-(6,7-dimethoxyquinolin-4-yloxy)-3-fluorophenyl]-3-(3-methoxybenzoyl)thiourea] |
| 0.364 µM | COc1cc2nccc(Oc3ccc(NC(=S)NC(=O)c4cccc(C(F)(F)F)c4)cc3)c2cc1OC [Example 145, 1-[4-(6,7-dimethoxyquinolin-4-yloxy)phenyl]-3-(3-trifluoromethyl-benzoyl)thiourea] |
| 1.21 µM | COc1cc2nccc(Oc3ccc(NC(=S)NC(=O)c4ccccc4Br)cc3F)c2cc1OC [Example 146, 1-(2-bromobenzoyl)-3-[4-(6,7-dimethoxy-quinolin-4-yloxy)-3-fluorophenyl]thiourea] |
| 1.17 µM | COc1cc2nccc(Oc3ccc(NC(=S)NC(=O)CCSC)cc3F)c2cc1OC [Example 147, 1-[4-(6,7-dimethoxyquinolin-4-yloxy)-3-fluorophenyl]-3-(3-methylsulfanylpropionyl)thiourea] |
